We go through four molecules from patent publication US7384971B2, “Phytochemicals for the treatment of cervical dysplasia” (BioResponse L.L.C., priority 1999, dated 2008).

The test system of data set [1] is person with chronic recurring breast pain (mastalgia). Description: Case study: processed DIM for chronic recurring breast pain (Example 5). Also on record: key to Typical Breast Pain Score / Typical Breast Soreness Score: 0 = none; 1 = mild; 2 = moderate; 3 = significant; 4 = severe. The note with it: After DIM, 225 mg per day, one month. Format: in vivo, human. An excerpt: The purpose of this study was to determine whether dietary supplementation with the cruicferous phytochemical, Diindolylmethane (DIM) is effective in relieving the pain of this chronic condition. patient one is a person referred for evaluation of perimenopausal symptoms of chronic recurring breast pain. They had been troubled by breast pain for many years with recent worsening in their symptoms. They had undergone a vaginal hysterectomy due to excessive and painful menstrual periods. Since their ovaries were left intact, they have received no Hormonal Replacement Therapy (HRT). During the last 4 years they experienced a monthly cycle of breast pain for about one week of each month. The breast pain was bilateral, associated with significant tenderness to touch, and a discomfort described as “heaviness or swelling.” A trial of a women's health supplement containing Don Quai provided no relief. Evaluation included a baseline morning urine sample and close assessment of their symptoms of breast pain during the ensuing month. Following this, bioavailable DIM was begun as a supplement at 225 mg per day together with increased dietary fiber. […] A second urine sample was obtained after one month on the DIM supplement.

Data set [2] concerns non-cancerous colon cells. As to conditions: cited from earlier work.
For a further data set, the system named is colon cancer cells. As to conditions: cited from earlier work.
Another data set has as its system serum Ca-125 antigen. As to the kind of experiment: Serial serum Ca-125 antigen levels in endometriosis patient. The data set is classed as in vivo, human. An excerpt: Diagnosis of the endometriosis and reduction in pain severity correlated with serial levels of serum Ca-125 antigen. Ca-125 is a serum marker with documented usefulness in monitoring the activity of endometriosis in a given patient (Pittaway D E and Fayez J A, 1986, “The use of CA-125 in the diagnosis and management of endometriosis”, Fertil Steril 46:790).

In data set [3] the test system is carcinogen-induced breast cancer. As to conditions: oral; cited from earlier work.
Data set [4] concerns 2-hydroxy and 16-hydroxy estrogen metabolites. As to the kind of experiment: Urinary estrogen metabolites, Elisa based assay (Estratest). Format: in vivo, human. As to conditions: After DIM, 225 mg per day. On the procedure: Evaluation included a baseline morning urine sample and close assessment of their symptoms of breast pain during the ensuing month. Following this, bioavailable DIM was begun as a supplement at 225 mg per day together with increased dietary fiber. […] A second urine sample was obtained after one month on the DIM supplement.
The urine samples were subsequently analyzed for their levels of 2-hydroxy and 16-hydroxy estrogen metabolites, using an Elisa based assay (Estratest, Immunacare, Inc., Bethlehem, Pa.).

In a further data set the test system is MCF7 breast cancer cells. As to conditions: tested in the absence of estrogen; cited from earlier work.
The test system of data set [5] is person with severe endometriosis. Description: Case study: processed DIM for endometriosis pain (Example 8). The data set is classed as in vivo, human. An excerpt: patient two is a slender and athletic person who sought alternatives in their management of severe endometriosis. Their symptoms of recurrent mid-cycle and menstrually associated pain have been diagnosed as due to endometriosis based on pelvic laparoscopy. This procedure confirmed aggressive endometriosis with ectopic endometrial implants removed from the pelvis and associated with intestinal serosal spread. A history of 2 years of intense pelvic pain at mid-cycle and during menstrual flow was reported prior to the laparoscopy. Their parent gives a history of painful menstrual periods […]. They went on to develop ovarian cancer requiring radical surgery […]. A maternal aunt developed cervical cancer requiring surgery. […] Like the patient, a younger sibling has been troubled with painful menstrual periods and pelvic pain leading to laparoscopy and the diagnosis of endometriosis.
Following the patient's laparoscopy, one menstrual period was still associated with significant pain. Supplementation with bioavailable processed DIM was begun approximately 6 weeks following the laparoscopy. Initial supplementation with bioavailable processed DIM provided 300 mg/day for one month which was reduced to 150 mg/day thereafter. […] The patient continued DIM supplementation for about one year.

In data set [6] the test system is recurrent laryngeal papillomatosis and cervical dysplasia. As to conditions: dietary supplementation; cited from earlier work.
For data set [7], the system named is 2-hydroxy estrogen metabolism. The note with it: women; cited from earlier work.
The next data set concerns women with endometriosis. The note with it: endometriosis therapy; cited from earlier work.
The subject of a further data set is women with mastalgia. As to conditions: cited from earlier work.
[8] abbreviates: Follow up Visit #3, Use of DIM YES.
The mark [9] stands for this setting: Follow-up Visit #1, Use of DIM YES.
Where [10] appears, read: Follow-up Visit #2, Use of DIM YES.

For the molecule `c1ccc2c(Cc3c[nH]c4ccccc34)c[nH]c2c1` [DIM, 3,3′-Diindolylmethane], the “Typical Breast Soreness Score (in words)” value in data set [1] is given as “Absent”. In data set [1] (one patient), the “Typical Breast Pain Score (in words)” value is on record as “Absent”. Also, the “Typical Breast Pain Score” value in data set [1] (score out of 4) was 0/4. The “Typical Breast Soreness Score” value in [1] (score out of 4) was 0/4. Also, the Growth inhibitory activity result in data set [2] was “not observed”. In addition, the “Effect on cell growth” value in the data set on colon cancer cells is “selective growth inhibitory activity”; in the data set on MCF7 breast cancer cells it was “promoted growth”. Further, the “Ca-125 Antigen” value with serum Ca-125 antigen (setting [8]) is given as 34.0; in the data set with serum Ca-125 antigen (setting [9]), 26.4; in the data set with serum Ca-125 antigen (setting [10]), 23.2. Also, the “Effect on tumor growth” value in [3] is “impede the growth”. For the same molecule, the “2-Hydroxy estrone level, urinary” value in [4] (morning urine after one month) is 26.4 ng/ml/mg Creatinine. Moreover, in [4] (urine after one month), the “2-Hydroxy to 16-Hyroxy estrone ratio” value stood at 5.08. Also, in data set [4] (urine after one month), the “16-Hydroxy estrone level, urinary” value is 5.1 ng/ml/mg Creatinine. Also, in data set [4] (urine after one month), the “Total urinary estrone metabolites” value was found to be 31.3 ng/ml/mg Creatinine. Further, the “Pain Level” value in [5] (setting [8]), in [5] (setting [9]) and in data set [5] (setting [10]) was “Improved” in each case. The “Comfort of menstrual periods / need for analgesics” value in data set [5] (supplementation for about one year) was “more comfortable, no longer requiring analgesics”.
`OCc1c[nH]c2ccccc12` [I3C, Indole-3-carbinol]: the Clinical outcome in data set [6] is on record as “some clinical improvement”. In data set [7], the “Effect on 2-hydroxy estrogen metabolism” value is listed as “increase 2-hydroxy estrogen metabolism”.
For `C#C[C@]1(O)CC[C@H]2[C@@H]3CCC4=Cc5oncc5C[C@]4(C)[C@H]3CC[C@@]21C` [Danazol], the “Women experiencing adverse side effects” value in the data set with women with endometriosis is “up to 80%”. Besides, in the data set with women with mastalgia (severe breast pain), the “Response rate in mastalgia” value was 70%.
With `CC(=O)O[C@]1(C(C)=O)CC[C@H]2[C@@H]3C[C@H](C)C4=CC(=O)CC[C@]4(C)[C@H]3CC[C@@]21C` [medroxyprogesterone acetate], the “Relief of mastalgia versus placebo” value in the data set on women with mastalgia (controlled trial) is given as “no better than placebo”.
